Values of other authors in patent US20240342302A1, “DEGRADER-ANTIBODY CONJUGATES AND METHODS OF USING SAME” (Angiex, Inc., priority 2021, published 2024).

Columns and labels:
[1] = patients treated with CA4P

SMILES	toxicity in the clinic	cardiovascular adverse events [1]
CC1(C)CCC(c2ccc(Cl)cc2)=C(CN2CCN(c3ccc(C(=O)NS(=O)(=O)c4ccc(N[C@H](CCN5CCOCC5)CSc5ccccc5)c(S(=O)(=O)C(F)(F)F)c4)cc3)CC2)C1 [ABT 263]	on-target and dose-limiting thrombocytopenia	–
COc1ccc(/C=C\c2cc(OC)c(OC)c(OC)c2)cc1OP(=O)(O)O [CA4P]	–	seven patients have experienced heart attacks
CN(C)CC#Cc1ccc(OCCCc2sc(N3CCc4cccc(C(=O)Nc5nc6ccccc6s5)c4C3)nc2C(=O)O)c(F)c1 [A115463]	on-target and dose-limiting thrombocytopenia	–
